From ChEMBL document CHEMBL3044808, “Laboratory and field comparisons of insecticides to reduce infestation of Drosophila suzukii in berry crops” (2011)
Calls of active or inactive are those of the source. No cut-off for these calls is given here.

Key:
[1] = system: Drosophila suzukii; assay: Insecticidal activity against Drosophila suzukii assessed as mortality at 112.3 g/ha by direct application at 22 degC measured after 24 hr; type: functional, organism-based
[2] = system: Drosophila suzukii; assay: Insecticidal activity against Drosophila suzukii assessed as male mortality at 3.31 g/ha by direct application at 22 degC measured after 24 hr; type: functional, organism-based
[3] = system: Drosophila suzukii; assay: Insecticidal activity against Drosophila suzukii assessed as male mortality at 2.3 g/ha by direct application at 22 degC measured after 24 hr; type: functional, organism-based
[4] = system: Drosophila suzukii; assay: Insecticidal activity against Drosophila suzukii assessed as male mortality at 112.3 g/ha by direct application at 22 degC measured after 24 hr; type: functional, organism-based
[5] = system: Drosophila suzukii; assay: Insecticidal activity against Drosophila suzukii assessed as male mortality at 41 g/ha by direct application at 22 degC measured after 24 hr; type: functional, organism-based
[6] = system: Drosophila suzukii; assay: Insecticidal activity against Drosophila suzukii assessed as mortality at 2.3 g/ha by direct application at 22 degC measured after 24 hr; type: functional
[7] = system: Drosophila suzukii; assay: Insecticidal activity against Drosophila suzukii assessed as mortality at 3.31 g/ha by direct application at 22 degC measured after 24 hr; type: functional, organism-based
[8] = system: Drosophila suzukii; assay: Insecticidal activity against Drosophila suzukii assessed as mortality at 113.8 g/ha by direct application at 22 degC measured after 24 hr; type: functional, organism-based
[9] = system: Drosophila suzukii; assay: Insecticidal activity against Drosophila suzukii assessed as mortality at 41 g/ha by direct application at 22 degC measured after 24 hr; type: functional, organism-based
[10] = system: Drosophila suzukii; assay: Insecticidal activity against Drosophila suzukii assessed as mortality at 2.2 g/ha by direct application at 22 degC measured after 24 hr; type: functional
[11] = system: Drosophila suzukii; assay: Insecticidal activity against Drosophila suzukii assessed as mortality at 24 g/ha by direct application at 22 degC measured after 24 hr; type: functional
[12] = system: Drosophila suzukii; assay: Insecticidal activity against Drosophila suzukii assessed as mortality at 56.2 g/ha by direct application at 22 degC measured after 24 hr; type: functional
[13] = system: Drosophila suzukii; assay: Insecticidal activity against Drosophila suzukii assessed as mortality at 112.1 g/ha by direct application at 22 degC measured after 24 hr; type: functional
[14] = system: Drosophila suzukii; assay: Insecticidal activity against Drosophila suzukii assessed as mortality at 112.2 g/ha by direct application at 22 degC measured after 24 hr; type: functional
[15] = system: Drosophila suzukii; assay: Insecticidal activity against Drosophila suzukii assessed as mortality at 341.5 g/ha by direct application at 22 degC measured after 24 hr; type: functional
[16] = system: Drosophila suzukii; assay: Insecticidal activity against Drosophila suzukii assessed as mortality at 223.9 g/ha by direct application at 22 degC measured after 24 hr; type: functional
[17] = system: Drosophila suzukii; assay: Insecticidal activity against Drosophila suzukii assessed as mortality at 1.1 g/ha by direct application at 22 degC measured after 24 hr; type: functional
[18] = system: Drosophila suzukii; assay: Insecticidal activity against Drosophila suzukii assessed as mortality at 62.3 g/ha by direct application at 22 degC measured after 24 hr; type: functional
[19] = system: Drosophila suzukii; assay: Insecticidal activity against Drosophila suzukii assessed as mortality at 1 g/ha by direct application at 22 degC measured after 24 hr; type: functional
[20] = system: Drosophila suzukii; assay: Insecticidal activity against Drosophila suzukii assessed as mortality at 70.2 g/ha by direct application at 22 degC measured after 24 hr; type: functional, organism-based
[21] = system: Drosophila suzukii; assay: Insecticidal activity against Drosophila suzukii assessed as mortality at 212.5 g/ha by direct application at 22 degC measured after 24 hr; type: functional, organism-based

| Compound | Activity [2] | Activity [3] | Activity [4] | Activity [5] | other results |
| --- | --- | --- | --- | --- | --- |
| C/C(=N\C#N)N(C)Cc1ccc(Cl)nc1 | Active | Active | Active | Active | Activity [1]: Active |
| CNC(=O)Oc1cccc2ccccc12 [CARBARIL] | Active | Active | Active | Active | mortality at 2.3 g/ha [6]: 100% |
| CC[C@H](C)[C@H]1O[C@]2(C=C[C@@H]1C)C[C@@H]1C[C@@H](C/C=C(\C)[C@@H](O[C@H]3C[C@H](OC)[C@@H](O[C@H]4C[C@H](OC)[C@@H](O)[C@H](C)O4)[C@H](C)O3)[C@@H](C)/C=C/C=C3\CO[C@@H]4[C@H](O)C(C)=C[C@@H](C(=O)O1)[C@]34O)O2.CO[C@H]1C[C@H](O[C@H]2[C@H](C)O[C@@H](O[C@@H]3/C(C)=C/C[C@@H]4C[C@@H](C[C@]5(C=C[C@H](C)[C@@H](C(C)C)O5)O4)OC(=O)[C@@H]4C=C(C)[C@@H](O)[C@H]5OC/C(=C\C=C\[C@@H]3C)[C@]54O)C[C@@H]2OC)O[C@@H](C)[C@@H]1O | Active | Active | Active | Active | Activity [7]: Active |
| CNC(=O)c1cc(Cl)cc(C)c1NC(=O)c1cc(Br)nn1-c1ncccc1Cl | Active | Active | Active | Active | Activity [8]: Active |
| C/C=C(\C)C(=O)O[C@H]1C[C@@H](OC(C)=O)[C@@]2(C(=O)OC)CO[C@H]3[C@@H](O)[C@@](C)([C@]45O[C@@]4(C)[C@@H]4C[C@H]5O[C@@H]5OC=C[C@@]54O)[C@H]4[C@]1(CO[C@]4(O)C(=O)OC)[C@@H]32 | Active | Active | Active | Active | Activity [9]: Active |
| CCOC(=O)CC(SP(=S)(OC)OC)C(=O)OCC (stereo not drawn) [MALATHION] | – | – | – | – | mortality at 2.2 g/ha [10]: 100%; mortality at 2.3 g/ha [6]: 100% |
| CC1(C)C(C=C(Cl)Cl)C1C(=O)OC(C#N)c1ccc(F)c(Oc2ccccc2)c1 (stereo not drawn) [CYFLUTHRIN] | – | – | – | – | mortality at 24 g/ha [11]: 100% |
| CC(C)[C@H](C(=O)O[C@H](C#N)c1cccc(Oc2ccccc2)c1)c1ccc(Cl)cc1 | – | – | – | – | mortality at 56.2 g/ha [12]: 100% |
| Cc1c(COC(=O)[C@@H]2[C@H](/C=C(\Cl)C(F)(F)F)C2(C)C)cccc1-c1ccccc1 (relative stereo) [BIFENTHRIN] | – | – | – | – | mortality at 112.1 g/ha [13]: 100%; mortality at 112.2 g/ha [14]: 100% |
| CC1(C)C(C(=O)OC(C#N)c2cccc(Oc3ccccc3)c2)C1(C)C (stereo not drawn) [FENPROPATHRIN] | – | – | – | – | mortality at 341.5 g/ha [15]: 100% |
| CC1(C)C(C=C(Cl)Cl)C1C(=O)OCc1cccc(Oc2ccccc2)c1 (stereo not drawn) [PERMETHRIN] | – | – | – | – | mortality at 223.9 g/ha [16]: 100% |
| CCOP(=S)(OCC)Oc1cc(C)nc(C(C)C)n1 [DIMPYLATE] | – | – | – | – | mortality at 1.1 g/ha [17]: 100% |
| C=CCC1=C(C)C(OC(=O)C2C(C=C(C)C)C2(C)C)CC1=O (stereo not drawn) [Allethrin] | – | – | – | – | mortality at 62.3 g/ha [18]: 79% |
| CNC(=O)ON=C(C)SC [METHOMYL] | – | – | – | – | mortality at 1 g/ha [19]: 100% |
| O=S1OCC2C(CO1)C1(Cl)C(Cl)=C(Cl)C2(Cl)C1(Cl)Cl (stereo not drawn) | – | – | – | – | Activity [17]: Active |
| CN1COCN(Cc2cnc(Cl)s2)/C1=N\[N+](=O)[O-] | Active | Active | Active | Active | Activity [20]: Active |
| O=C(NC(=O)c1c(F)cccc1F)Nc1ccc(OC(F)(F)C(F)OC(F)(F)F)c(Cl)c1 (stereo not drawn) | – | – | – | – | Activity [21]: Active |
